# Results taken from US8716350B2, “Compositions and methods for the treatment of somatosensory disorders” (Algynomics Inc., priority 2010, dated 2014).
# Entries after “also recorded” stand apart in the source; their conditions may differ. Read-outs that look alike come from different tables or passages of the source.
# Tests used:
# ADRB1 = ADRB1 (Homo sapiens, UniProt P08588); settings: cells transfected with ADRB1
# ADRB3 = target: T1, ADRB3 (Homo sapiens, UniProt P13945); format: cell-based; settings: cells transfected with ADRB3
# T1 construct: expressed in transfected cells; host or cells: HEK-293 co-expressing GloSensor-22F
# [1] = test system: λ-carrageenan thermal and mechanical allodynia; test: Carrageenan hyperalgesia (radiant heat and von Frey); format: in vivo, CD-1 (ICR:Crl) mice
# Method: All behavioral experiments were performed on naive, adult (6-12 weeks of age) CD-1 (ICR:Crl) mice of both sexes that were bred in-house from breeders obtained from Charles River (Boucherville, QC). All mice were housed with their same-sex littermates (two to four animals per cage) in standard shoebox cages, maintained in a temperature-controlled (20±1° C.) environment (14/10 h light/dark cycle), and fed (Harlan Teklad 8604) and watered ad libitum. The up-down method of Dixon (1965) was used. Mice were placed on a perforated metal floor (with 5-mm diameter holes placed 7 mm apart) within small Plexiglas cubicles (9×5×5 cm high), and a set of eight calibrated von Frey fibers (Stoelting Touch Test Sensory Evaluator Kit #2 to #9; ranging from ≈0.015 g to ≈1.3 g of force) were applied to the plantar surface of the hind paw until the fibers bowed and then held for 3 s. The threshold force required to elicit withdrawal of the paw (median 50% withdrawal) was determined twice on each hind paw (and averaged) for all baseline measurements (except for the spared nerve injury experiments), with sequential measurements separated by at least 20 min. Following drug administration, one measurement per hind paw was taken at the indicated time point. Mice were placed on glass floor within small Plexiglas cubicles as described above, and a focused high-intensity projector lamp beam was directed from below onto the mid-plantar surface of the hind paw (Hargreaves et al., 1988). The commercial device (IITC Model 336) was set to 20% active intensity. Latency to withdraw from the stimulus was measured to the nearest 0.1 s. Baseline measurements consisted of testing both hind paws twice on three separate occasions separated by at least 30 min. Following drug administration both hind paws were only tested once at the indicated time point. λ-Carrageenan (2%; 20 mg/ml; Sigma) was suspended by sonication in saline, and injected subcutaneously in a volume of 20 μl into the left plantar hindpaw using a 100 μL1 microsyringe with a 30-gauge needle. Mice were tested for thermal and mechanical sensitivity of both hind paws using the radiant heat paw withdrawal and von Frey tests before and 3 h post carrageenan injection. All drugs were injected immediately following the test for carrageenan hyperalgesia at the 3 h time point, and post-drug measurements were taken at 20, 40 and 60 min.
# in vivo = settings: mouse
# rotarod performance = settings: for ataxia on the rotarod test (in words): 60 mg/kg, 20-80 min after injection; for ED50 for maximal ataxia: 60 min following drug administration, interval in parentheses
# thermal thresholds = test: Radiant heat paw-withdrawal test (acute nociception); format: in vivo, CD-1 (ICR:Crl) mice; settings: high dose; 20 min post-injection
# Method: All behavioral experiments were performed on naive, adult (6-12 weeks of age) CD-1 (ICR:Crl) mice of both sexes that were bred in-house from breeders obtained from Charles River (Boucherville, QC). All mice were housed with their same-sex littermates (two to four animals per cage) in standard shoebox cages, maintained in a temperature-controlled (20±1° C.) environment (14/10 h light/dark cycle), and fed (Harlan Teklad 8604) and watered ad libitum. Mice were placed on glass floor within small Plexiglas cubicles as described above, and a focused high-intensity projector lamp beam was directed from below onto the mid-plantar surface of the hind paw (Hargreaves et al., 1988). The commercial device (IITC Model 336) was set to 20% active intensity. Latency to withdraw from the stimulus was measured to the nearest 0.1 s. Baseline measurements consisted of testing both hind paws twice on three separate occasions separated by at least 30 min. Following drug administration both hind paws were only tested once at the indicated time point.
# mechanical thresholds = test: Von Frey test (acute nociception); format: in vivo, CD-1 (ICR:Crl) mice; settings: 10, 30, 60 mg/kg
# Method: (§1) All behavioral experiments were performed on naive, adult (6-12 weeks of age) CD-1 (ICR:Crl) mice of both sexes that were bred in-house from breeders obtained from Charles River (Boucherville, QC). All mice were housed with their same-sex littermates (two to four animals per cage) in standard shoebox cages, maintained in a temperature-controlled (20±1° C.) environment (14/10 h light/dark cycle), and fed (Harlan Teklad 8604) and watered ad libitum. The up-down method of Dixon (1965) was used. Mice were placed on a perforated metal floor (with 5-mm diameter holes placed 7 mm apart) within small Plexiglas cubicles (9×5×5 cm high), and a set of eight calibrated von Frey fibers (Stoelting Touch Test Sensory Evaluator Kit #2 to #9; ranging from ≈0.015 g to ≈1.3 g of force) were applied to the plantar surface of the hind paw until the fibers bowed and then held for 3 s. The threshold force required to elicit withdrawal of the paw (median 50% withdrawal) was determined twice on each hind paw (and averaged) for all baseline measurements (except for the spared nerve injury experiments), with sequential measurements separated by at least 20 min. Following drug administration, one measurement per hind paw was taken at the indicated time point.
# hind paw formalin test = test: Hind paw formalin test (2.5% formaldehyde), Example 2; format: in vivo, mice; settings: for late phase, C-fiber mediated responses (paw licking): late/tonic phase, last 50 minutes
# formalin-induced pain = test: Formalin test (5% formalin, intraplantar), Example 6; format: in vivo, CD-1 (ICR:Crl) mice; settings: 95% confidence interval in parentheses; for ED50: Mus musculus
# [2] = test system: mechanical allodynia evoked by spared nerve injury; test: Spared nerve injury, von Frey test; format: in vivo, CD-1 (ICR:Crl) mice; settings: 60 mg/kg; 7 days postoperatively
# Method: as §1, with “point. […]” for “point.”
# ADRB2 = target: T2, ADRB2 (Homo sapiens, UniProt P07550); test: GloSensor cAMP-sensitive luciferase reporter assay, HEK-293 cells transfected with ADRB2; format: cell-based
# T2 construct: expressed in transfected cells; host or cells: HEK-293 co-expressing GloSensor-22F
# [3] = test system: cells transfected with only Sport6 vector without inserts; test: GloSensor cAMP assay, cells transfected with only Sport6 vector without inserts; format: cell-based
# [4] = 60 mg/kg, up to 60 min post-injection
# [5] = 0-10 min post-injection of formalin
# [6] = 10-60 min post-injection of formalin
# [7] = S-ALG 517 60, 90 mg/kg, R-ALG 517 60, 90, 120 mg/kg, propranolol 10, 30, 60 mg/kg
# Sequence of ADRB1 (P08588 whole entry, species assumed): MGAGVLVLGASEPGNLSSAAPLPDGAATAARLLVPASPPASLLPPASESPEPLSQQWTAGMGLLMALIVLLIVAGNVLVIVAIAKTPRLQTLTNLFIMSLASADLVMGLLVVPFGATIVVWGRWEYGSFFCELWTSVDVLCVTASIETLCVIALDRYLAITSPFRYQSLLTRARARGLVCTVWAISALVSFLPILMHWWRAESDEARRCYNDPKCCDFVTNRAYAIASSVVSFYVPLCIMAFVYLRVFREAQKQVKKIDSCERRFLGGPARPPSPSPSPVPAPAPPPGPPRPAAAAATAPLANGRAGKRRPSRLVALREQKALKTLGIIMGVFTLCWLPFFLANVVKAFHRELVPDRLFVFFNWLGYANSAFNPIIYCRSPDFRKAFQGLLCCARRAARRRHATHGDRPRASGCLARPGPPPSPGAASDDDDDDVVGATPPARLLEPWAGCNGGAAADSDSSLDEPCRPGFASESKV
# T1 sequence (P13945 whole entry, species assumed): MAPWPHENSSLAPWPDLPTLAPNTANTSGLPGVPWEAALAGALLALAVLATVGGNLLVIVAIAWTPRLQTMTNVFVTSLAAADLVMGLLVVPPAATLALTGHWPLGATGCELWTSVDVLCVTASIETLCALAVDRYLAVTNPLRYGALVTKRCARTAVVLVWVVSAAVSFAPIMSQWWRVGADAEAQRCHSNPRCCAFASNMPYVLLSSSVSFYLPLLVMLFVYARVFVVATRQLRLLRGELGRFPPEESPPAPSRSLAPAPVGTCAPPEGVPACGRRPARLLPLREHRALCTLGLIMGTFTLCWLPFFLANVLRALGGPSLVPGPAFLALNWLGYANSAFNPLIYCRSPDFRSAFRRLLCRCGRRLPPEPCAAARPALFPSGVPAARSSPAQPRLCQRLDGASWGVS
molecule,measurement,setting,value
"Cc1ccc(OCC(O)C(C)NC(C)C)c2c1CCC2 (centres unmarked) [ICI118,551, 3-(isopropylamino)-1-[(7-methyl-4-indanyl)oxy]butan-2-ol]",blockade of morphine stimulation of cAMP,ADRB1; antagonist 300 nM,partial blockade
same,blockade of morphine stimulation of cAMP,ADRB3; antagonist 300 nM,no blockade
"Cc1ccc(Cl)c(OC[C@H](O)CNC(C)(C)C)c1 [R-ALG 517, R-tert-butyl[3-(2-chloro-5-methylphenoxy)-2-hydroxypropyl]amine]",reversal of thermal hyperalgesia,[1]; 10 mg/kg,transient reversal
same,reversal of mechanical hyperalgesia,[1]; 30 mg/kg,transient reversal
same,reversal of thermal hyperalgesia,[1]; 30 mg/kg,transient reversal
same,reversal of mechanical hyperalgesia,[1]; [4],complete and sustained
same,reversal of thermal hyperalgesia,[1]; [4],complete and sustained
same,ED50 at 60 min,in vivo,166 mg/kg
same,ataxia / sedation on rotarod over the doses tested (in words),"rotarod performance; mouse, in vivo",does not produce significant ataxia
same,thermal thresholds on the radiant heat test,thermal thresholds,increased thermal thresholds
same,mechanical thresholds on the von Frey test,mechanical thresholds,no effect
same,"late phase, C-fiber mediated responses (paw licking)",hind paw formalin test; 10 mg/kg,reduced
same,"early, A-delta mediated phase responses (paw licking)","hind paw formalin test; early/acute phase, first 5 min",not altered
same,ED50,"formalin-induced pain; 0-10 min post-injection of formalin, read-out: half-maximal analgesic dose (ED50), Early Phase",46 mg/kg
same,ED50,"formalin-induced pain; 10-60 min post-injection of formalin, read-out: half-maximal analgesic dose (ED50), Late Phase",26.6 mg/kg
same,reversal of mechanical allodynia evoked by spared nerve injury,[2],reversed
CC(C)NC[C@@H](O)COc1cccc2ccccc12 [R-propranolol],"half-maximal analgesic dose (ED50), Early Phase",formalin-induced pain; [5],not calculable
same,"half-maximal analgesic dose (ED50), Late Phase",formalin-induced pain; [6],not calculable
"Cc1ccc(Cl)c(OC[C@@H](O)CNC(C)(C)C)c1 [S-ALG 517, S-tert-butyl[3-(2-chloro-5-methylphenoxy)-2-hydroxypropyl]amine]",ataxia on the rotarod test (in words),rotarod performance,only slight and possibly not even significant ataxia
same,ED50 for maximal ataxia,rotarod performance,74 mg/kg
same,ataxia / sedation on rotarod over the doses tested (in words),rotarod performance; [7],produce sedation at much lower doses
same,responses to the hind paw formalin test,hind paw formalin test; 3 mg/kg,without effect
same,responses to the hind paw formalin test,hind paw formalin test; 10 mg/kg,without effect
same,"half-maximal analgesic dose (ED50), Early Phase",formalin-induced pain; [5],not calculable
same,"half-maximal analgesic dose (ED50), Late Phase",formalin-induced pain; [6],not calculable
CC(C)NCC(O)COc1cccc2ccccc12 (centres unmarked) [S-Propranolol],"half-maximal analgesic dose (ED50), Early Phase",formalin-induced pain; [5],35 mg/kg
same,"half-maximal analgesic dose (ED50), Late Phase",formalin-induced pain; [6],25.46 mg/kg
CN1CC[C@]23c4c5ccc(O)c4O[C@H]2[C@@H](O)C=C[C@H]3[C@H]1C5 [morphine],ADRB2 agonist potency in comparison with other agonists (in words),ADRB2,most potent ADRB2 agonist
same,agonist potency at ADRB2 as compared to ADRB1 and ADRB3,ADRB2,500-1000 times
same,agonist stimulation of cAMP production,ADRB2,stimulated cAMP production; also recorded: dose-dependent increases
same,intrinsic activity at ADRB2 as compared to ADRB1 and ADRB3,ADRB2,about 10 times
same,cAMP response,[3],did not evoke responses
same,intracellular cAMP accumulation,ADRB1,dose-dependent increases
same,intracellular cAMP accumulation,ADRB3,dose-dependent increases
CC(C)NCC(O)COc1cccc2ccccc12 (centres unmarked) [propranolol],ataxia on the rotarod test (in words),rotarod performance,fall off the rotarod very rapidly
same,ED50 for maximal ataxia,rotarod performance,4.76 mg/kg
same,ataxia / sedation on rotarod over the doses tested (in words),rotarod performance; [7],produce sedation at much lower doses
same,"late phase, C-fiber mediated responses (paw licking)",hind paw formalin test; 10 mg/kg,reduced
same,"half-maximal analgesic dose (ED50), Early Phase","formalin-induced pain; 0-10 min post-injection of formalin, listed as racemic propranolol",33 mg/kg
same,"half-maximal analgesic dose (ED50), Late Phase","formalin-induced pain; 10-60 min post-injection of formalin, listed as racemic propranolol",21.3 mg/kg
dynorphin A,agonist stimulation of cAMP production,ADRB2,showed agonistic properties
